According to PMC6348381, “Discovery of an MLLT1/3 YEATS Domain Chemical Probe” (Angewandte Chemie (International Ed. in English), 2018):

Key:
Assay type in all cases: binding
BRD4(1) = BRD4(1) (Homo sapiens, UniProt O60885); experiment: Thermal shift assay, BRD4(1); set-up: BRD4(1); purchased in-house (SGC bromodomain thermal shift / AlphaScreen panel)
Procedure: (§1) II.VII Thermal Shift Assay[6]
(§2) Thermal melting experiments were carried out using an Mx3005p Real Time PCR machine (Stratagene). Proteins were buffered in 10 mM HEPES pH 7.5, 500 mM NaCl and assayed in a 96-well plate at a final concentration of 2 μM in 20 μL volume. Compounds were added at a final concentration of 50 μM. SYPRO Orange (Molecular Probes) was added as a fluorescence probe at a dilution of 1:1000. Excitation and emission filters for the SYPRO-Orange dye were set to 465 nm and 590 nm, respectively. The temperature was raised with a step of 3 °C per minute from 25 °C to 96 °C and fluorescence readings were taken at each interval. The unfolding curves were fitted using the Boltzmann equation to determine the middle point of the transition.

BRPF3 = target: T1, BRPF3 (Homo sapiens, UniProt Q9ULD4); experiment: Thermal shift assay, BRPF3
T1 construct: purchased in-house (SGC bromodomain thermal shift / AlphaScreen panel)
T1 sequence (Q9ULD4 1-1205): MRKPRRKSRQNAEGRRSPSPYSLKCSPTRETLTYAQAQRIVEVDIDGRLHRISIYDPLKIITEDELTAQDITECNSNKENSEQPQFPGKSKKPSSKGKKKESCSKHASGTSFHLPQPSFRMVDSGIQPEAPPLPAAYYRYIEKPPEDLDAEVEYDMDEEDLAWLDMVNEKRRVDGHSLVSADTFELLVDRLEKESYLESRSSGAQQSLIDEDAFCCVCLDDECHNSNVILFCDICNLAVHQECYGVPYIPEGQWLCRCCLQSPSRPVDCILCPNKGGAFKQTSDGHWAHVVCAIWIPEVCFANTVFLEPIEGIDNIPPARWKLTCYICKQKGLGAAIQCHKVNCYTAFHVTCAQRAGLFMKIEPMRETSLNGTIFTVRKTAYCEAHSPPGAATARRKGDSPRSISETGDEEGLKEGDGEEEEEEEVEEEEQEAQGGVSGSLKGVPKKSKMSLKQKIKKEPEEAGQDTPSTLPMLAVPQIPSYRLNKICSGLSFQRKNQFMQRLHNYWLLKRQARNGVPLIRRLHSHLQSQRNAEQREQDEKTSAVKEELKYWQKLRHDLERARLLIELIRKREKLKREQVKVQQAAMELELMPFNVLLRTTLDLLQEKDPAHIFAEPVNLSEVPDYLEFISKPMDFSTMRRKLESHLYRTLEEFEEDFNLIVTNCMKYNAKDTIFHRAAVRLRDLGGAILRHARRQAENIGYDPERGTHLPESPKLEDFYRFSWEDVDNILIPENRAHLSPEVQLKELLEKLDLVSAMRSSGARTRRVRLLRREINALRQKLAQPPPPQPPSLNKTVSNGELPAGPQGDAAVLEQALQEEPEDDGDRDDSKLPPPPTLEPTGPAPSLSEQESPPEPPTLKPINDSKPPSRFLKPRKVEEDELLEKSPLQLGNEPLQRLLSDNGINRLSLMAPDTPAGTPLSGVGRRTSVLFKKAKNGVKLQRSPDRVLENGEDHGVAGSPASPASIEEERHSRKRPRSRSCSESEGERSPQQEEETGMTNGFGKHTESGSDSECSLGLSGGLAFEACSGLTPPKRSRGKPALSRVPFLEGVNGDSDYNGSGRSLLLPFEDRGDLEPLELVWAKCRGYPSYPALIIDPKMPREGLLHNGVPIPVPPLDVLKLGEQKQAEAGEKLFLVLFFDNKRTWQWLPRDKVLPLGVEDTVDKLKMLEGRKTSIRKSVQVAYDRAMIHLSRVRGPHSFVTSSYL
Procedure: as §1, §2

BRPF1B = target: T2, BRPF1B (Homo sapiens, UniProt P55201); experiment: Thermal shift assay, BRPF1B
T2 construct: purchased in-house (SGC bromodomain thermal shift / AlphaScreen panel)
T2 sequence (P55201 1-1214): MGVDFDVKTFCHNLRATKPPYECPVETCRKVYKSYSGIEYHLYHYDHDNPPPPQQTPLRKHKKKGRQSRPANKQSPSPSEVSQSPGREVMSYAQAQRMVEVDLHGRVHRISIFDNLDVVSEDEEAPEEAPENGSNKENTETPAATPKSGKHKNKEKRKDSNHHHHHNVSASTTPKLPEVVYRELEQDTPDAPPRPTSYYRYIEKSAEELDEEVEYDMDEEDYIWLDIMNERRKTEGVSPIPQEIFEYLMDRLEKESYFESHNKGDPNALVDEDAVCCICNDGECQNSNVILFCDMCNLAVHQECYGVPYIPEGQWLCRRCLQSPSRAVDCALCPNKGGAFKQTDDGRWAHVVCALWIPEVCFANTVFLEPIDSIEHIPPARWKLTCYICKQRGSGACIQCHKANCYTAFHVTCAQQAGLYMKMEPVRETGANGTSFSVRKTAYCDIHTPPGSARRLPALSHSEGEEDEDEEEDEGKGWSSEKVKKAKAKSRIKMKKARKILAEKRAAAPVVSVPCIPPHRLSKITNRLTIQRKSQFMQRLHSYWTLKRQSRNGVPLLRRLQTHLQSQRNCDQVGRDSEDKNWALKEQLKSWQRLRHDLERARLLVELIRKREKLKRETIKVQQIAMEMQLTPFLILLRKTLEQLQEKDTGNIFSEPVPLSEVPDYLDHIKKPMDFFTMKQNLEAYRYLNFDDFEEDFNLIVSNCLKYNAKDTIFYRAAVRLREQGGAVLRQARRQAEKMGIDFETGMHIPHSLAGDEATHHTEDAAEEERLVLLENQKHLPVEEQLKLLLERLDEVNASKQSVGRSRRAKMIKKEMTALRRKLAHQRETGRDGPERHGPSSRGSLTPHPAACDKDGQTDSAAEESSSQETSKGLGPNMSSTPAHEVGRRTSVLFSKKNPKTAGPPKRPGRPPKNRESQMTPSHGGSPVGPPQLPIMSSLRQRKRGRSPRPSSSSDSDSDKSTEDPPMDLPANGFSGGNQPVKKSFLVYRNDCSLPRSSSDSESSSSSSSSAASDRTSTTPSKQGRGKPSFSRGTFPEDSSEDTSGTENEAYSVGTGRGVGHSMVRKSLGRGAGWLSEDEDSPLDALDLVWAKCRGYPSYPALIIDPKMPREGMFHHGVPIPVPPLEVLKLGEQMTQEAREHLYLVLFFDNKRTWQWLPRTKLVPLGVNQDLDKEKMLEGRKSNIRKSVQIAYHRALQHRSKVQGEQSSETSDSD

SMARCA2A = target: T3, SMARCA2A (Homo sapiens, UniProt P51531); experiment: Thermal shift assay, SMARCA2A
T3 construct: purchased in-house (SGC bromodomain thermal shift / AlphaScreen panel)
T3 sequence (P51531 whole entry): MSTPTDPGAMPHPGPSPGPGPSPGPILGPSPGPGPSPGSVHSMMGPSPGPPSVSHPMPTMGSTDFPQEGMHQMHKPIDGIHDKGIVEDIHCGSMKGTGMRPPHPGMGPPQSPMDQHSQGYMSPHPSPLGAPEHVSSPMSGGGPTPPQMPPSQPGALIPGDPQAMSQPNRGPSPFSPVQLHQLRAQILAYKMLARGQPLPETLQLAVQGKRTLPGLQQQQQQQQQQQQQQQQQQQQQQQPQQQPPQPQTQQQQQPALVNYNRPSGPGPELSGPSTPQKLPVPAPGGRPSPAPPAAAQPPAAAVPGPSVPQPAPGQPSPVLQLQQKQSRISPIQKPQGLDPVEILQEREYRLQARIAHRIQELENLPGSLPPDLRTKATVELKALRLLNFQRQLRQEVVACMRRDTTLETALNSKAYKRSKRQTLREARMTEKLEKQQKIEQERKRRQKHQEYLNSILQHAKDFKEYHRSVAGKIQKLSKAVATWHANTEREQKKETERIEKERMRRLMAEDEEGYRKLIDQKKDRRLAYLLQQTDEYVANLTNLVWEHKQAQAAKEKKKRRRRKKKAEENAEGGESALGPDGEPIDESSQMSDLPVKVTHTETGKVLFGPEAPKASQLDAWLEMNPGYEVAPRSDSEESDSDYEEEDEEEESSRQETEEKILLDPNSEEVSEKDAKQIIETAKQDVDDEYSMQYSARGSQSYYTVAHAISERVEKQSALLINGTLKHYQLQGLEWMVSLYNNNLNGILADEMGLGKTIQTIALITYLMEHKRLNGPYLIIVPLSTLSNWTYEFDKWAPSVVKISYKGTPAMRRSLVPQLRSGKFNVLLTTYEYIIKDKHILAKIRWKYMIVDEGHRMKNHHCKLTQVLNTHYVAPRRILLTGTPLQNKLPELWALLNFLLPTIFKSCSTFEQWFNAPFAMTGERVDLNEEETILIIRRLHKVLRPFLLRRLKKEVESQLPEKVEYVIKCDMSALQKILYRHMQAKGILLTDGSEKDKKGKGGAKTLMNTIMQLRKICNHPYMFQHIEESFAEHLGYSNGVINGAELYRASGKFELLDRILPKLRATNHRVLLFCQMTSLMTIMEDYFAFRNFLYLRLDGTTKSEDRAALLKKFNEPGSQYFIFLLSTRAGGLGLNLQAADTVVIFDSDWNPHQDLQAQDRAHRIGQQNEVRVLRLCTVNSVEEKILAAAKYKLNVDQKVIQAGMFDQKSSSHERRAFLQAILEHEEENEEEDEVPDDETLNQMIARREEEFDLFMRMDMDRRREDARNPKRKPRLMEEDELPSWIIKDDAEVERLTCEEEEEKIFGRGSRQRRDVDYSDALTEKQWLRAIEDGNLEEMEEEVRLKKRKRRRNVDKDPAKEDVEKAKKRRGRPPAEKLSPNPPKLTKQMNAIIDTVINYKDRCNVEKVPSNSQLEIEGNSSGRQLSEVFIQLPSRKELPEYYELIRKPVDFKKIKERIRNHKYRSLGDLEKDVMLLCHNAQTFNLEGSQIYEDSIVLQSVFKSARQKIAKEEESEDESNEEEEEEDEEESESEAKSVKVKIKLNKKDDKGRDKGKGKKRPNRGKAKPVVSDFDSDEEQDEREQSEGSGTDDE

BAZ2A = target: T4, BAZ2A (Homo sapiens, UniProt Q9UIF9); experiment: Thermal shift assay, BAZ2A
T4 construct: purchased in-house (SGC bromodomain thermal shift / AlphaScreen panel)
T4 sequence (Q9UIF9 whole entry): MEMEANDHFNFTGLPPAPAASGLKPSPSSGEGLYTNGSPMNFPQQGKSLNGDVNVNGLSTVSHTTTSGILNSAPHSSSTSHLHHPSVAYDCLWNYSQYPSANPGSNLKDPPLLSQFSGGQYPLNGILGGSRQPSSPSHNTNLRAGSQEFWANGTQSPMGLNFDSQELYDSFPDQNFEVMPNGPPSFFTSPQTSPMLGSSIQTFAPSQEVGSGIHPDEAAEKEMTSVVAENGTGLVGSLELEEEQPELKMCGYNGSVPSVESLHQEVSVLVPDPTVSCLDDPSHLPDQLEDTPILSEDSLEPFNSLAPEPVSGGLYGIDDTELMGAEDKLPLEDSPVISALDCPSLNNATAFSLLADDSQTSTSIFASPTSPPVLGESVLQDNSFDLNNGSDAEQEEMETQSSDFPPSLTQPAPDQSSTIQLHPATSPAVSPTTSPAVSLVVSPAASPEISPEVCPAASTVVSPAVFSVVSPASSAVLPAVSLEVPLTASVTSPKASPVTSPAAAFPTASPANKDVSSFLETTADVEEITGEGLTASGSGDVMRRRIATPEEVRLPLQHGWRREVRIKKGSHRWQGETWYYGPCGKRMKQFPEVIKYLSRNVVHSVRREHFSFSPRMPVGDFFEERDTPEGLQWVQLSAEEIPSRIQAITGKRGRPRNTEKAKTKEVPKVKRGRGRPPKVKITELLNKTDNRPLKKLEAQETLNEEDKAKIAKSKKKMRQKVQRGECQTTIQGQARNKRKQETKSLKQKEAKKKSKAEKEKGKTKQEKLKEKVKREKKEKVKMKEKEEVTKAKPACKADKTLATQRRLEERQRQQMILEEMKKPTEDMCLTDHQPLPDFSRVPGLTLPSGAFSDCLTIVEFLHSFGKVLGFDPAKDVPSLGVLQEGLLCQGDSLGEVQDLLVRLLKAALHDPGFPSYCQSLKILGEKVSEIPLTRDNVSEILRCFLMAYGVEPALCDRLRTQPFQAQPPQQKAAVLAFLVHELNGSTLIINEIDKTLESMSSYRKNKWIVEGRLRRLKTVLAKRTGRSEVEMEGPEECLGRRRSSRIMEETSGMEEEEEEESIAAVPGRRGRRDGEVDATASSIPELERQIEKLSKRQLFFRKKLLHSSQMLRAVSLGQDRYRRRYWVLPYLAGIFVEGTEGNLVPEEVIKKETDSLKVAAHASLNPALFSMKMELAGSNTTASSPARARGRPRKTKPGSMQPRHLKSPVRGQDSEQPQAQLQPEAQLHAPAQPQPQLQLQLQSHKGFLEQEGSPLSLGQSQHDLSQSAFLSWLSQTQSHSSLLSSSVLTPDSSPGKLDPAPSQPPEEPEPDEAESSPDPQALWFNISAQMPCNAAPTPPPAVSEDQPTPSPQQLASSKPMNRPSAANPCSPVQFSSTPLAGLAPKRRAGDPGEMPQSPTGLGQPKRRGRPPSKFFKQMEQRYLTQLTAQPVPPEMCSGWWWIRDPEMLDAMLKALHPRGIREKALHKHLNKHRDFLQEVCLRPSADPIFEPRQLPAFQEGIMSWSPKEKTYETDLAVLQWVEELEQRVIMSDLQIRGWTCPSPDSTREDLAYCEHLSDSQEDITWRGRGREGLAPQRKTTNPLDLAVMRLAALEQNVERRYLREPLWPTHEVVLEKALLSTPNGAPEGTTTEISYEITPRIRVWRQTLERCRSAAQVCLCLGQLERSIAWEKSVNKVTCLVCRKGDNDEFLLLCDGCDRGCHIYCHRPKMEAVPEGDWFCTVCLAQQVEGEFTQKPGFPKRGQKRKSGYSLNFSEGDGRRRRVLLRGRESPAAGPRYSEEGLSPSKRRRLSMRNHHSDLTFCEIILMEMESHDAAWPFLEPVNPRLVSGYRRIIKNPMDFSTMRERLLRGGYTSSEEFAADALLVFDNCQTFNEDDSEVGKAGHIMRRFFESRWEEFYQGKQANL
Procedure: as §1, §2

C[C@H]1CCCN1Cc1nc2cc(NC(=O)c3ccc4c(cnn4C)c3)ccc2[nH]1 [Compound 92]
Thermal stabilisation, BRD4(1) (BRD4(1); 50 μM compound): -0.035
Thermal stabilisation, BRPF3 (BRPF3; 50 μM compound): -0.245
Thermal stabilisation, BRPF1B (BRPF1B; 50 μM compound): -0.435
Thermal stabilisation, SMARCA2A (SMARCA2A; 50 μM compound): 0.97
Thermal stabilisation, BAZ2A (BAZ2A; 50 μM compound): 0.25

COC(=O)c1ccc(C(=O)Nc2ccc3[nH]c(CN4CCCCC4)nc3c2)cc1 [Compound 1]
Thermal stabilisation, BRD4(1) (BRD4(1); 50 μM compound): 1.095
Thermal stabilisation, BRPF3 (BRPF3; 50 μM compound): 1.015
Thermal stabilisation, BRPF1B (BRPF1B; 50 μM compound): 0.275
Thermal stabilisation, SMARCA2A (SMARCA2A; 50 μM compound): 1.445
Thermal stabilisation, BAZ2A (BAZ2A; 50 μM compound): 0.81

CCOC(=O)Nc1cc(-c2ccc(C)c(NS(C)(=O)=O)c2)nn2c(C)nnc12 [Bromosporine, reference compound]
Thermal stabilisation, BRD4(1) (BRD4(1); 10 µM compound concentration): 6.61
Thermal stabilisation, BRPF3 (BRPF3; 10 µM compound concentration): 1
Thermal stabilisation, BRPF1B (BRPF1B; 10 µM compound concentration): 4.23
Thermal stabilisation, SMARCA2A (SMARCA2A; 10 µM compound concentration): 0.35
Thermal stabilisation, BAZ2A (BAZ2A; 10 µM compound concentration): 1.125
